From patent US20120039957A1 (ACURA PHARMACEUTICALS, INC., priority 2010, published 2012)

Assays:
[1] = for mean time to peak disliking / mean peak disliking effect (Emin), VAS: 480 mg oral tablet, after high-fat breakfast; for mean time to peak disliking: high responders; for mean peak disliking effect (Emin), VAS: high responders (six subjects)
Experimental: A total of 49 subjects were enrolled. […] As identified in the randomization schedule for each subject, subjects took each dose of study drug immediately following a standardized high-fat breakfast.
During the study, each subject completed a 100 point Visual Analog Scale (VAS) “Like/Dislike” Rating Scale at dosing and for up to 6 hours post-dosing where subjects were asked “Do you like or dislike the drug effect you are feeling now?”

[2] = at pH 4.8; cited from earlier work
[3] = intestinal pH reduced from pH 8 to pH 5; cited from earlier work
[4] = in the presence of food, VAS over 6 hours

Structure (SMILES) | mean time to peak disliking [1] | mean peak disliking effect (Emin), VAS [1] | high responder subjects (of six) with lower VAS scores than with standard niacin ([1]; 480 mg, fed, six high responders) | faster time to peak disliking than standard particle size niacin [1, 4] | more substantial disliking effect than standard particle size niacin [1, 4] | fraction non-ionized [2] | enhancement of intestinal uptake [3]
O=C(O)c1cccnc1 [micronized niacin, niacin] | 2.25 h | −28.7 mm | five | 25% | 89% | – | –
O=C(O)c1cccnc1 [niacin] | – | – | – | – | – | 50% | approximately five fold
O=C(O)c1cccnc1 [standard niacin, niacin, reference compound] | 3.0 h | −15.3 mm | – | – | – | – | –
